Laboratory results published in patent US12636305B2, “Composition and method of applying same to increase survival of fish following catch-and-release situations” (Dutch Creek Nymphing, LLC, priority 2022, dated 2026).
Where “and” joins values, the source holds several entries; their conditions need not be identical. Equal entries are not always repeated.

Tested on: Zebrafish, Danio rerio
Assay: Zebrafish swim exhaustion test (vessel plunger model)
Type: in vivo
Set-up: Immediate recovery 20 min later, % Control (change from the control treatment as a percentage of the control treatment): concentration or dose not given beside the values
Conditions: for Immediate recovery 20 min later, % Control (change from the control treatment as a percentage of the control treatment) / Immediate recovery 20 min later, Average: 20 minutes after treatment; for Immediate recovery 20 min later, % Control (change from the control treatment as a percentage of the control treatment): versus water control; for Immediate recovery 20 min later, Average: average of 8 fish; for Immediate recovery 20 min later, Average / Immediate recovery 20 min later (water vortex revolutions per minute when the fish failed to maintain swimming in place): post exhaustion; for Immediate recovery 20 min later (water vortex revolutions per minute when the fish failed to maintain swimming in place): individual fish (8 per treatment), 20 minutes after application of the treatment
Description: This study utilizes a well-recognized vessel plunger model system to determine fish exhaustion during maximal swim performance trials (Usui T, Noble […]. The French press: a repeatable and high-throughput approach to exercising zebrafish (Danio rerio). […] In brief, zebrafish is placed in the top compartment above plunger and evaluated for its ability to swim against circular water currents created by a rotating magnetic stir bar positioned below the plunger. […] Next, the fish is brought to the water surface with the aid of a plunger and the composition is administered to the fish using one of the possible methods of administration. The fish is lowered back into the top compartment, and the individual maximum swimming speed is determined again (post-exhaustion value). This experimental setup allows one to determine the highest tolerated continuous swimming speed associated with control, exhaustion and recovery conditions that models catching, fighting, landing, treating, and releasing fish. […] The experimental methodology was substantially similar to the methods discussed in Usui, et al. (2018). […] Each treatment was administered to eight Zebrafish (n=104 total fish). […] Initial swim strength was measured prior to exhaustion of the fish and subsequent administration of the selected treatment and therefore serves as a baseline. […] After the initial swim strength test, the fish swam to exhaustion (as defined in Usui, et al. […] As anticipated by the Applicant, even post-treatment the fish became exhausted at a lower rpm, but there were significant differences in when each treatment group began to tire.

Molecule	Immediate recovery 20 min later, % Control (change from the control treatment as a percentage of the control treatment)	Immediate recovery 20 min later, Average	Immediate recovery 20 min later (water vortex revolutions per minute when the fish failed to maintain swimming in place)
CC(=O)C(=O)O [Pyruvate, pyruvate]	9%	451 rpm	420 rpm (2×) and 430 rpm and 450 rpm (2×) and 510 rpm and 520 rpm and 410 rpm
O=C([O-])[O-].O=C([O-])[O-].OO.OO.OO.[Na+].[Na+].[Na+].[Na+] [Sodium percarbonate, sodium percarbonate]	24%	514 rpm	540 rpm (2×) and 500 rpm and 590 rpm and 530 rpm and 430 rpm and 520 rpm and 460 rpm
CC(C)C[C@H](N)C(=O)O [Leucine, leucine]	10%	455 rpm	460 rpm and 400 rpm and 470 rpm (2×) and 510 rpm and 490 rpm and 390 rpm and 450 rpm
N=C(N)NCCC[C@H](N)C(=O)O [Arginine, arginine]	17%	484 rpm	520 rpm (2×) and 510 rpm and 550 rpm and 450 rpm and 580 rpm and 460 rpm and 280 rpm
O=C(O)CN(CCN(CC(=O)O)CC(=O)O)CC(=O)O [EDTA, ethylenediaminetetraacetic acid]	8%	446 rpm	460 rpm (3×) and 430 rpm and 410 rpm (2×) and 420 rpm and 520 rpm
C/C=C/C=C/C(=O)[O-].[K+] [Potassium sorbate, potassium sorbate]	5%	433 rpm	380 rpm and 420 rpm and 440 rpm and 460 rpm (2×) and 390 rpm and 500 rpm and 410 rpm
salt	14%	471 rpm	410 rpm and 490 rpm (2×) and 510 rpm (2×) and 480 rpm (2×) and 400 rpm
